One block for each compound: values may come before it.
Tested on: 282377-053-R-J1-PDC complex spheroid viability
Experiment: Anticancer human tumor 282377-053-R-J1-PDC patient-derived colon adenocarcinoma cell line growth inhibition [RAS]
Details: for IC50: curve of first compound; for viability, T/C: stronger effect = lower value
In short: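 Multi-cell-type spheroids: tumor cells plus HUVEC endothelial cells and mesenchymal stem cells. RAS-pathway inhibitors were combined with targeted agents, each dosed in half-log steps down from clinical Cmax, or from 10 microM when Cmax was unknown.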

[1] = second compound 0.000949 µM, first compound 0.0316 µM
[2] = second compound 0.000949 µM, first compound 0.1 µM
[3] = second compound 0.000949 µM, first compound 0.316 µM
[4] = second compound 0.000949 µM, first compound 1 µM
[5] = second compound 0.000949 µM, first compound 3.16 µM
[6] = second compound 0.000949 µM, first compound 10 µM
[7] = second compound 0.003 µM, first compound 0.0316 µM
[8] = second compound 0.003 µM, first compound 0.1 µM
[9] = second compound 0.003 µM, first compound 0.316 µM
[10] = second compound 0.003 µM, first compound 1 µM
[11] = second compound 0.003 µM, first compound 3.16 µM
[12] = second compound 0.003 µM, first compound 10 µM
[13] = second compound 0.00949 µM, first compound 0.0316 µM
[14] = second compound 0.00949 µM, first compound 0.1 µM
[15] = second compound 0.00949 µM, first compound 0.316 µM
[16] = second compound 0.00949 µM, first compound 1 µM
[17] = second compound 0.00949 µM, first compound 3.16 µM
[18] = second compound 0.00949 µM, first compound 10 µM
[19] = second compound 0.03 µM, first compound 0.0316 µM
[20] = second compound 0.03 µM, first compound 0.1 µM
[21] = second compound 0.03 µM, first compound 0.316 µM
[22] = second compound 0.03 µM, first compound 1 µM
[23] = second compound 0.03 µM, first compound 3.16 µM
[24] = second compound 0.03 µM, first compound 10 µM
[25] = second compound 0.0949 µM, first compound 0.0316 µM
[26] = second compound 0.0949 µM, first compound 0.1 µM
[27] = second compound 0.0949 µM, first compound 0.316 µM
[28] = second compound 0.0949 µM, first compound 1 µM
[29] = second compound 0.0949 µM, first compound 3.16 µM
[30] = second compound 0.0949 µM, first compound 10 µM
[31] = second compound 0.3 µM, first compound 0.0316 µM
[32] = second compound 0.3 µM, first compound 0.1 µM
[33] = second compound 0.3 µM, first compound 0.316 µM
[34] = second compound 0.3 µM, first compound 1 µM
[35] = second compound 0.3 µM, first compound 3.16 µM
[36] = second compound 0.3 µM, first compound 10 µM
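Also: spheroids exposed to agents for seven days before readout.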
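For viability, T/C in this document: luminescence viability as percent of DMSO vehicle control wells.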

SMILES: CCC(CC)c1cc(NC2CCC(N)C2)n2nccc2n1 (stereo not given) + CCn1c(-c2cc(N3CCN(C)CC3)cnc2C(C)OC)c2c3cc(ccc31)-c1csc(n1)CC(NC(=O)C1CC1C)C(=O)N1CCCC(N1)C(=O)OCC(C)(C)C2
IC50 (second compound 0.000949 µM): 1710 nM
IC50 (second compound 0.003 µM): 1480 nM
IC50 (second compound 0.00949 µM): 1720 nM
IC50 (second compound 0.03 µM): 1530 nM
IC50 (second compound 0.0949 µM): 1780 nM
IC50 (second compound 0.3 µM): 1800 nM
viability, T/C [1]: 85.5%
viability, T/C [2]: 98.8%
viability, T/C [3]: 98.5%
viability, T/C [4]: 84.1%
viability, T/C [5]: 11.1%
viability, T/C [6]: 6.68%
viability, T/C [7]: 89.4%
viability, T/C [8]: 86.5%
viability, T/C [9]: 81.2%
viability, T/C [10]: 70.5%
viability, T/C [11]: 10.4%
viability, T/C [12]: 3.1%
viability, T/C [13]: 81.9%
viability, T/C [14]: 95.3%
viability, T/C [15]: 72%
viability, T/C [16]: 90.7%
viability, T/C [17]: 10.8%
viability, T/C [18]: 4.36%
viability, T/C [19]: 76%
viability, T/C [20]: 82%
viability, T/C [21]: 85.7%
viability, T/C [22]: 71.2%
viability, T/C [23]: 13.2%
viability, T/C [24]: 7.45%
viability, T/C [25]: 95.7%
viability, T/C [26]: 87.2%
viability, T/C [27]: 76.1%
viability, T/C [28]: 88.6%
viability, T/C [29]: 13%
viability, T/C [30]: 2.75%
viability, T/C [31]: 94.7%
viability, T/C [32]: 78%
viability, T/C [33]: 86.1%
viability, T/C [34]: 94.9%
viability, T/C [35]: 13.4%
viability, T/C [36]: 3.35%

SMILES: Nc1ccn(C2OC(CO)C(O)C2(F)F)c(=O)n1 (stereo not given) + CCn1c(-c2cc(N3CCN(C)CC3)cnc2C(C)OC)c2c3cc(ccc31)-c1csc(n1)CC(NC(=O)C1CC1C)C(=O)N1CCCC(N1)C(=O)OCC(C)(C)C2
IC50 (second compound 0.000949 µM): > 1000 nM
IC50 (second compound 0.003 µM): > 1000 nM
IC50 (second compound 0.00949 µM): > 1000 nM
IC50 (second compound 0.03 µM): > 1000 nM
IC50 (second compound 0.0949 µM): > 1000 nM
IC50 (second compound 0.3 µM): > 1000 nM
viability, T/C (second compound 0.000949 µM, first compound 0.00316 µM): 107%
viability, T/C (second compound 0.000949 µM, first compound 0.01 µM): 95.1%
viability, T/C [1]: 120%
viability, T/C [2]: 107%
viability, T/C [3]: 101%
viability, T/C [4]: 66.8%
viability, T/C (second compound 0.003 µM, first compound 0.00316 µM): 90%
viability, T/C (second compound 0.003 µM, first compound 0.01 µM): 110%
viability, T/C [7]: 106%
viability, T/C [8]: 111%
viability, T/C [9]: 93.8%
viability, T/C [10]: 64.6%
viability, T/C (second compound 0.00949 µM, first compound 0.00316 µM): 116%
viability, T/C (second compound 0.00949 µM, first compound 0.01 µM): 95.9%
viability, T/C [13]: 129%
viability, T/C [14]: 107%
viability, T/C [15]: 96.4%
viability, T/C [16]: 69%
viability, T/C (second compound 0.03 µM, first compound 0.00316 µM): 104%
viability, T/C (second compound 0.03 µM, first compound 0.01 µM): 100%
viability, T/C [19]: 108%
viability, T/C [20]: 115%
viability, T/C [21]: 86.7%
viability, T/C [22]: 71.5%
viability, T/C (second compound 0.0949 µM, first compound 0.00316 µM): 104%
viability, T/C (second compound 0.0949 µM, first compound 0.01 µM): 95.2%
viability, T/C [25]: 100%
viability, T/C [26]: 106%
viability, T/C [27]: 123%
viability, T/C [28]: 72.5%
viability, T/C (second compound 0.3 µM, first compound 0.00316 µM): 120%
viability, T/C (second compound 0.3 µM, first compound 0.01 µM): 94.2%
viability, T/C [31]: 129%
viability, T/C [32]: 131%
viability, T/C [33]: 118%
viability, T/C [34]: 108%

Second part, led by results:

IC50 (second compound 0.000949 µM): < 31.6 nM
IC50 (second compound 0.003 µM): < 31.6 nM
IC50 (second compound 0.00949 µM): < 31.6 nM
IC50 (second compound 0.03 µM): < 31.6 nM
IC50 (second compound 0.0949 µM): < 31.6 nM
IC50 (second compound 0.3 µM): < 31.6 nM
SMILES: CC(=O)OC12COC1CC(O)C1(C)C(=O)C(O)C3=C(C)C(OC(=O)C(O)C(NC(=O)OC(C)(C)C)c4ccccc4)CC(O)(C(OC(=O)c4ccccc4)C21)C3(C)C (stereo not given) + CCn1c(-c2cc(N3CCN(C)CC3)cnc2C(C)OC)c2c3cc(ccc31)-c1csc(n1)CC(NC(=O)C1CC1C)C(=O)N1CCCC(N1)C(=O)OCC(C)(C)C2
viability, T/C [1]: 41.2%
viability, T/C [2]: 48.6%
viability, T/C [3]: 44.2%
viability, T/C [4]: 52%
viability, T/C [5]: 61%
viability, T/C [6]: 97.3%
viability, T/C [7]: 50.1%
viability, T/C [8]: 38.4%
viability, T/C [9]: 45.5%
viability, T/C [10]: 55.2%
viability, T/C [11]: 52.2%
viability, T/C [12]: 83.2%
viability, T/C [13]: 50.1%
viability, T/C [14]: 42.6%
viability, T/C [15]: 52.5%
viability, T/C [16]: 38.7%
viability, T/C [17]: 72.2%
viability, T/C [18]: 91.9%
viability, T/C [19]: 36.1%
viability, T/C [20]: 46%
viability, T/C [21]: 41.9%
viability, T/C [22]: 58.2%
viability, T/C [23]: 60.5%
viability, T/C [24]: 96.2%
viability, T/C [25]: 42%
viability, T/C [26]: 49.4%
viability, T/C [27]: 46.3%
viability, T/C [28]: 40.2%
viability, T/C [29]: 77.5%
viability, T/C [30]: 77.6%
viability, T/C [31]: 43.1%
viability, T/C [32]: 54.1%
viability, T/C [33]: 47.9%
viability, T/C [34]: 56.3%
viability, T/C [35]: 79.6%
viability, T/C [36]: 100%

IC50 (second compound 0.000949 µM): > 10000 nM
IC50 (second compound 0.003 µM): > 10000 nM
IC50 (second compound 0.00949 µM): > 10000 nM
IC50 (second compound 0.03 µM): > 10000 nM
IC50 (second compound 0.0949 µM): > 10000 nM
IC50 (second compound 0.3 µM): > 10000 nM
SMILES: Cc1nc(N2CCC3(CC2)COC(C)C3N)c(CO)nc1Sc1ccnc(N)c1Cl (stereo not given) + CCn1c(-c2cc(N3CCN(C)CC3)cnc2C(C)OC)c2c3cc(ccc31)-c1csc(n1)CC(NC(=O)C1CC1C)C(=O)N1CCCC(N1)C(=O)OCC(C)(C)C2
viability, T/C [1]: 88.7%
viability, T/C [2]: 92.8%
viability, T/C [3]: 89.5%
viability, T/C [4]: 87.7%
viability, T/C [5]: 76.8%
viability, T/C [6]: 96.8%
viability, T/C [7]: 80.6%
viability, T/C [8]: 94.4%
viability, T/C [9]: 78.7%
viability, T/C [10]: 80.5%
viability, T/C [11]: 94.8%
viability, T/C [12]: 96.5%
viability, T/C [13]: 82.7%
viability, T/C [14]: 64.8%
viability, T/C [15]: 74.6%
viability, T/C [16]: 105%
viability, T/C [17]: 74.5%
viability, T/C [18]: 94%
viability, T/C [19]: 80.6%
viability, T/C [20]: 82.2%
viability, T/C [21]: 90.1%
viability, T/C [22]: 85.3%
viability, T/C [23]: 88%
viability, T/C [24]: 91.1%
viability, T/C [25]: 69.7%
viability, T/C [26]: 93.5%
viability, T/C [27]: 88.9%
viability, T/C [28]: 78.6%
viability, T/C [29]: 95.5%
viability, T/C [30]: 93.8%
viability, T/C [31]: 80.5%
viability, T/C [32]: 88.8%
viability, T/C [33]: 91.1%
viability, T/C [34]: 105%
viability, T/C [35]: 112%
viability, T/C [36]: 89.8%

IC50 (second compound 0.000949 µM): > 10000 nM
IC50 (second compound 0.003 µM): > 10000 nM
IC50 (second compound 0.00949 µM): > 10000 nM
IC50 (second compound 0.03 µM): > 10000 nM
IC50 (second compound 0.0949 µM): > 10000 nM
IC50 (second compound 0.3 µM): > 10000 nM
SMILES: NC1c2ccccc2OC12CCN(c1cnc3c(N4CCCc5ncccc54)n[nH]c3n1)CC2 (stereo not given) + CCn1c(-c2cc(N3CCN(C)CC3)cnc2C(C)OC)c2c3cc(ccc31)-c1csc(n1)CC(NC(=O)C1CC1C)C(=O)N1CCCC(N1)C(=O)OCC(C)(C)C2
viability, T/C [1]: 96.6%
viability, T/C [2]: 102%
viability, T/C [3]: 87.7%
viability, T/C [4]: 99.9%
viability, T/C [5]: 106%
viability, T/C [6]: 140%
viability, T/C [7]: 97.4%
viability, T/C [8]: 102%
viability, T/C [9]: 96.3%
viability, T/C [10]: 99%
viability, T/C [11]: 93.7%
viability, T/C [12]: 98.6%
viability, T/C [13]: 135%
viability, T/C [14]: 96.2%
viability, T/C [15]: 111%
viability, T/C [16]: 90.8%
viability, T/C [17]: 100%
viability, T/C [18]: 107%
viability, T/C [19]: 115%
viability, T/C [20]: 109%
viability, T/C [21]: 101%
viability, T/C [22]: 123%
viability, T/C [23]: 122%
viability, T/C [24]: 97%
viability, T/C [25]: 108%
viability, T/C [26]: 118%
viability, T/C [27]: 100%
viability, T/C [28]: 107%
viability, T/C [29]: 111%
viability, T/C [30]: 112%
viability, T/C [31]: 126%
viability, T/C [32]: 152%
viability, T/C [33]: 105%
viability, T/C [34]: 117%
viability, T/C [35]: 110%
viability, T/C [36]: 106%
